These results are taken from patent US5342612A, “Compositions for the treatment of mammalian diseases” (priority 1991, dated 1994).

The test system of one data set is S. aureus. Briefly: Potentiation of bacteriostatic activity of lysostaphin by vehicles (checkered analysis). Type of data set: cell-based, Staphylococcus aureus. From the text:
In order to identify the nontoxic formulations for mammalian use, toxicity is employed as a method to eliminate direct bactericidal effects on the S. aureus, as well as potential toxic effects on the target animal. Compounds are formulated with r-lysostaphin at concentrations below toxic effects and compared to the bacteriostatic activity of r-lysostaphin in a saline formulation. Some compounds potentiate r-lysostaphin bacteriostatic activity by as much as 300-1000 fold.
Several surfactants, detergents, oils, emollients and membrane solubilizers are chosen as representative of various classes of compounds which may affect protein activity. These vehicles are then evaluated for toxicity and potentiation of the bacteriostatic effects of r-lysostaphin on S. aureus according to the methods described in the foregoing examples. […] Secondly, the vehicles are subjected to the toxicity test on murine cells in vitro. Viable cells are evaluated by trypan blue exclusion and normalized to an untreated control. Thereafter, dairy cattle are infused through the teat canal with various concentrations of the vehicle to make a determination of the irritation potential after intramammary infusion as a measure of mammalian toxicity. Milk samples are collected after infusion of said vehicles and the somatic cell count is determined. The Stimulation Index equals the post-infusion SCC divided by the pre-infusion SCC. The vehicles showing minimal toxicity to S. aureus and mammalian cells in vitro and in vivo are subsequent candidates for evaluation in the in vivo potentiation trials.
Various vehicle combinations are tested in a standard checkered analysis which simultaneously varies the concentration of both parameters to examine the individual contribution of each. Vehicles are all compared to r-lysostaphin in a saline solution, i.e., the potentiation index. […] Glycerol and triacetin, while only potentiating the activity of r-lysostaphin 6-8 fold, is manifested by bactericidal effects (see above Table IV).

Data set [1] has as its system Staphylococcus aureus mastitis (Newbould 305). In words: Efficacy of lysostaphin formulated in vehicles as intramammary infusion against Staphylococcus aureus mastitis. Type of data set: in vivo, bovine (dairy cows). From the text: This experiment examines the ability of various lysostaphin formulations to eliminate S. aureus infections in the bovine mammary gland and compares the formulations with the testing of lysostaphin in a peanut oil-gel matrix, similar to that used in the commercial product CEFA-LAK®, which is used to treat mastitis in lactating dairy cows.
Lysostaphin is formulated in three vehicles: 15% w/v poloxamer 407 NF, 50% w/v glycerol or 10% w/v triacetin. Lysostaphin is also formulated in a peanut oil-gel matrix. These formulations are infused into the bovine mammary gland and the ability of these combinations to exact a biological response, either by curing the infection or by clearing the mammary gland temporarily of S. aureus, are assessed.
Recombinant lysostaphin is suspended in 10.0 mL of peanut oil vehicle or dissolved in 60.0 mL of appropriate sterile vehicle (sPBS) at a concentration of 10.0 mg/mL or 1.67 mg/mL, respectively. Each of 15% poloxamer 407 NF (PLURONIC® ACID F127, a polyoxyethylene-polyoxypropylene derivative, BASF Corporation, Parsippany, N.J.); 50% glycerol (Sigma Chemical Co., St. Louis, Mo.); and 10% triacetin (glyceryl triacetate, Sigma Chemical Co., St. Louis, Mo.) are prepared in sterile phosphate buffered saline.
Staphylococcus aureus infections of the mammary gland provide an excellent model system for evaluating therapeutic efficacy of a variety of pharmaceutical and biological agents for many infectious diseases of mammals. Therefore, experimental infections are established with S. aureus (strain Newbould 305). All mammary glands to be inoculated are free of pathogens and have individual quarter somatic cell counts (SCC) less than 200,000 cells/mL of milk. Inoculum is prepared from a four-hour culture grown in trypticase soy broth and diluted. Inoculations are made by infusion of 1.0 mL diluted culture containing 90 colony forming units of S. aureus (Newbould 305) into the teat cistern of a milked-out mammary quarter. Quarters which fail to establish an infection after six days from initial inoculation are reinfected.
Prepared in PBS is 50% glycerol and the solution is then sterile filtered (0.45μ). Poloxamer 407 NF is mixed overnight and prepared similarly. A 10% triacetin solution is prepared aseptically in sterile PBS. Appropriate amounts of lysostaphin is added so the final concentration is 1.67 mg/mL. All preparations are in a total volume of 60.0 mL and made the day of the infusion. All solutions are sterile filtered through a 0.45μ filter.
Duration of treatment: 3 consecutive PM milkings
Quarters are randomly assigned to one of six treatment groups. All quarters are infused with the appropriate vehicle (60.0 mL) with or without lysostaphin over three consecutive PM milkings. […]

The nature of data set [2]: Toxicity of formulations on mammalian cell lines (cell viability, Coulter). Format: cell-based, murine. The method, then: (§1) Cell Lines: A20: B-cell tumor cell line 9C127: T-cell hybridoma cell line LB/62287: B-cell lymphoma cell line P388.D1: Macrophage tumor cell line
(§2) Cell lines (1×10^5 /well; >85% viability) are cultured in 24 well flat bottom plates in RPMI® medium (Gibco Laboratories, Grand Island, N.Y.) supplemented with 10% fetal calf serum, streptomycin (100 μg/mL) and penicillin (100 U/mL). Cultures are incubated (37° C., 10% CO2) with the following concentrations of vehicles:
(§3) c) 1.0%, 0.1% or 0.01% Triacetin or IMWITOR®
(§4) After a 72 hour or 6 hour incubation period, cells are harvested and counted by the Coulter Counter (Northwell Drive, England). Cell viability is determined using a Coulter Channelyzer.
(§5) The relative toxicity of the sample formulations to estimate the relative degree of toxicity for in vivo administration is carried out in vitro with the mammalian cell lines. Various concentrations of the vehicles are incubated for either 6 or 24 hours with the different mammalian cell lines. Immediate toxicity is evaluated at 6 hours by quantitating the number of dead cells in treated wells as compared to the untreated controls. Long term toxicity effects as well as effects which may inhibit cell growth are evaluated by measuring the relative degree of proliferation after an additional 48 hours incubation with ^3 H-thymidine.

Data set [3] deals with LB/62287 (B-cell lymphoma cell line). The data set is described as above. Format: cell-based, murine. The method, then: as §1, §2, §3, §4, §5
The test system of data set [4] is A20 (B-cell tumor cell line). The description is as above. Type of data set: cell-based, murine. As for the experimental part: as §1, §2, §3, §4, §5
The test system of the next data set is mammary gland. As to conditions: bovine, in vivo. The method, then: Multiparous Holstein-Fresian dairy cattle cultured negative for infection and with individual quarter somatic cell counts less than 200,000 cells/mL are used. The lactating dairy cows receive a ration consisting of corn silage, alfalfa hay and concentrate which is formulated to provide recommended amounts of minerals and vitamins for a lactating dairy cow. Water is provided ad libitum.
The somatic cell count (SCC) of twelve normal glands are determined prior to treatment. Three groups of four quarters each receive an intramammary infusion of 10 mL to 60 mL of the respective vehicles identified in Example 1, 15% w/v poloxamer 407 NF (PLURONIC® F127), 50% w/v glycerol, 10% w/v triacetin (glyceryl triacetate) and the sPBS as a control. In vivo degree of irritation is measured by infusing a quarter of a mammary gland with the vehicle and measuring the SCC at 12, 36 and 60 hours after infusion. The data are expressed as the stimulation index which is calculated as the average experimental SCC divided by the control SCC.

The nature of another data set: in vitro. Type of data set: cell-based, murine. The note with it: mouse, p388.d1 cells, Relative Toxicity at 6 Hours. As for the experimental part: as §1, §2, §3, §4, §5
The test system of another data set is S. aureus mastitis. In words: Therapy of S. aureus bovine mastitis (background). As to conditions: in vivo efficacy trials; in words.
Where [5] appears, read: mouse, a20 cells, Relative Toxicity at 6 Hours.

Where two headings read alike, the source gives them in different places.

`CC(=O)OCC(COC(C)=O)OC(C)=O` [Triacetin, glyceryl triacetate]: in the data set on S. aureus (in words (footnotes, text)), the Character of potentiation entry was “Potentiates the bactericidal activity of rlysostaphin”. Further, the “Vehicle Conc. w/Max. Potentiation (%)” value in the data set with S. aureus (with r-lysostaphin) stood at 10.0%. Moreover, in data set [1] (100 mg lysostaphin infusions on three consecutive days), the “% Cures” value is on record as 25%. In addition, in data set [1] (in words), the “Effect on potentiating the in vivo efficacy of lysostaphin” value is on record as “Neither glycerol nor triacetin (both have a cure rate of 25%) has any significant effect”. The viability at 6 h in data set [2] (lb/62287 b-cell lymphoma, Relative Toxicity at 6 Hours) was in the range of 75 to 90%; in data set [2] (setting [5]), 75 to 90%. The viability at 72 h in data set [2] (lb/62287 b-cell lymphoma, Relative Toxicity at 72 Hours) fell in the range of 0 to 24%. The “Relative Toxicity at 6 Hours” value in data set [3] and in data set [4] was “-” in each case. For the same molecule, the “Relative Toxicity at 72 Hours” value in data set [3] and in data set [4] was “-” in each case. Moreover, the “Tolerability / irritation upon infusion” value in the data set with mammary gland was “A small amount of irritation to some animals”.
Regarding `CCCCCCCC(=O)OCC(O)CO` (centres unmarked) [IMWITOR ®, Glyceryl monocaprylate], the viability at 6 h in the data set “in vitro” was 75 to 90%; in data set [2] (lb/62287 b-cell lymphoma, LB, 6 h, vehicle 0.01%, read-out: Relative Toxicity at 6 Hours) it was 50 to 74%; in data set [2] (lb/62287 b-cell lymphoma, LB, 6 h, vehicle 0.1%, read-out: Relative Toxicity at 6 Hours), 25 to 49%; in data set [2] (lb/62287 b-cell lymphoma, LB, 6 h, vehicle 1.0%, read-out: Relative Toxicity at 6 Hours) it was 25 to 49%; in data set [2] (setting [5]) it was 50 to 74%. For the same molecule, the viability at 72 h lay in the range of 50 to 74% in data set [2] (lb/62287 b-cell lymphoma, LB, 72 h, vehicle 0.01%, read-out: Relative Toxicity at 72 Hours); 0 to 24% in data set [2] (lb/62287 b-cell lymphoma, LB, 72 h, vehicle 0.1%, read-out: Relative Toxicity at 72 Hours); 0 to 24% in data set [2] (lb/62287 b-cell lymphoma, LB, 72 h, vehicle 1.0%, read-out: Relative Toxicity at 72 Hours). Moreover, the “Relative Toxicity at 6 Hours” value in data set [4] is listed as “-”. In data set [4], the “Relative Toxicity at 72 Hours” value is reported as “-”.
As to lipopolysaccharide, the “Clearing of the mammary gland of S. aureus” value with S. aureus mastitis is given as “able to clear the mammary gland temporarily of S. aureus”.
